{"source": "paper PMC2424174", "about": "“Suppression of Tumor Growth and Angiogenesis by a Specific Antagonist of the Cell-Surface Expressed Nucleolin” (PLoS ONE, 2008)", "key": {"[1]": {"conditions": "cited from earlier work", "text": "HB-19 treatment is not toxic in vitro and in vivo. The lack of translocation of HB-19 to the nucleus and nucleolus probably accounts for its lack of toxicity in cultured cells and in mice, since nuclear nucleolin is involved in many aspects of gene expression, [2]. […] In s ..."}, "HUVECs": {"system": "HUVECs", "assay": "HUVEC migration assay (modified Boyden chamber)", "format": "cell-based, human", "conditions": "VEGF165; 1 µM HB-19 or 0.1 µM mAb MS-3; 4 h, 37°C; two independent experiments", "protocol": "Figure 6 Inhibition of in vitro and in vivo angiogenesis by HB-19. (A) HB-19 inhibits proliferation of HUVECs. Twenty-four hours after seeding HUVECs in 2% FBS, cells were stimulated by 0.25 nM VEGF165, in the absence or presence of 1 µM HB-19 or 0.1 µM anti-nucleolin mAb MS-3 as indicated. After 72 h, cell number was determined by crystal violet staining. The data are reported as the mean of triplicate samples. (B) HB-19 inhibits migration of HUVECs. Cell migration was studied using a modified Boyden chamber. Cells were incubated (4 h at 37°C) with VEGF165, HB-19, or anti-nucleolin mAb MS-3 as above. Cells that migrated through the pore to the lower filter surface were counted and are shown as number per microscopic field at ×100 magnification. […] Tubular network structures were quantified using phase contrast microscopy (×100). […] Quantification of endothelial cell invasion into the Matrigel was determined and is expressed as a mean of five fields per section from 3 Matrigel-plug sections per mouse. The results are expressed as the mean of five mice per group. […]\nHUVEC migration assays were performed using a 24-well chemotaxis chamber (Transwell, Corning Costar, France). […] The cells that had migrated through the pores to the lower filter surface were counted in three random high power fields in each well (magnification 100×). […]"}, "[2]": {"system": "cells (surface nucleolin)", "assay": "Internalization of nucleolin ligands (quoted)", "format": "cell-based", "conditions": "HB-19, 20°C; compared with GROs"}, "[3]": {"system": "Aortic endothelial (ABAE) cells", "assay": "Tubular network structure formation in collagen gel", "format": "cell-based, bovine", "protocol": "Figure 6 Inhibition of in vitro and in vivo angiogenesis by HB-19. (A) HB-19 inhibits proliferation of HUVECs. Twenty-four hours after seeding HUVECs in 2% FBS, cells were stimulated by 0.25 nM VEGF165, in the absence or presence of 1 µM HB-19 or 0.1 µM anti-nucleolin mAb MS-3 as indicated. After 72 h, cell number was determined by crystal violet staining. The data are reported as the mean of triplicate samples. (B) HB-19 inhibits migration of HUVECs. Cell migration was studied using a modified Boyden chamber. Cells were incubated (4 h at 37°C) with VEGF165, HB-19, or anti-nucleolin mAb MS-3 as above. Cells that migrated through the pore to the lower filter surface were counted and are shown as number per microscopic field at ×100 magnification. The data are the mean of three independent high-power fields/well performed in duplicate in two independent experiments. […] Aortic endothelial (ABAE) cells in the absence or presence of 3 nM PTN, 0.5 nM VEGF165, and 3 nM FGF-2 were seeded on a three-dimensional collagen gel in complete medium. Treatment with HB-19 or anti-nucleolin mAb MS-3 was for 3 days after cell plating. Tubular network structures were quantified using phase contrast microscopy (×100). The ordinate gives the number of pseudocapillaries corresponding to the means of three randomly chosen fields/well from three wells. (D) HB-19 inhibits […] angiogenic activity of growth factors in a Matrigel plug model. Liquid Matrigel was subcutaneously injected into the flank of Swiss mice in the absence or presence of 5 nM PTN, 10 nM FGF-2, and 1 µM HB-19. Quantification of endothelial cell invasion into the Matrigel was determined and is expressed as a mean of five fields per section from 3 Matrigel-plug sections per mouse. The results are expressed as the mean of five mice per group. Statistical significance: *p<0.05, **p<0.01, ***p<0.001.\nThree-dimensional collagen gels were prepared following the procedure of Montesano with minor modifications. […] Tubular network structures were then quantified using phase contrast microscopy at 100× magnification. […]"}, "[4]": {"system": "MDA-MB-435 tumor-cell xenografts", "assay": "MDA-MB-435 xenograft in nude mice", "format": "in vivo, human", "conditions": "HB-19 5 mg/kg, intraperitoneal, 3 times/week, 8 weeks, n = 10", "protocol": "Figure 8 HB-19 inhibits tumor growth in the nude mice. (A) HB-19 inhibits the growth of MDA-MB-231 tumor-cell xenografts. Cells (2×10^6) were injected subcutaneously into the right flank of female nude mice. Two weeks later, mice with a palpable tumor of approximately 40 mm^3 in volume were randomly separated into three groups (n = 5) and were given peritumoral injections 3 times/week of 0.1 ml PBS alone (Control), HB-19 (5 mg/kg), or Tamoxifen (Tmx) 10 mg/kg) for 6 weeks. (B) HB-19 inhibits the growth of MDA-MB-435 tumor-cell xenografts. Cells (1×10^6) were injected in the mammary fat pad of female nude mice. Two weeks later, mice with a palpable tumor were randomly separated into three groups (n = 10) and were given intraperitoneal injections 3 times/week of 0.1 ml PBS alone (Control), HB-19 (5 mg/kg), or 5-fluouracil (5-FU, 40 mg/kg) for 8 weeks. At the end of each experiment (in A and B), mice were sacrificed and the tumors were excised and weighed. The results are presented as the mean weight ±standard deviation (±S.D.) obtained from the number of mice in each group. (C, D) Inhibition of tumor development in mice treated by intraperitoneal (i.p.) and subcutaneous (s.c.) administration of HB-19. MDA-MB-231 tumor bearing mice in three groups (n = 10) were treated with HB-19 (10 mg/kg) by i.p. or s.c. injections, 3 times/week for 28 days. […]"}}}
{"substance": "pseudo-tripeptide Lysψ(CH2N)-Pro-Arg coupled to a template (H2NLys-Lys-Lys-Gly-Pro-Lys-Glu-Lys-AhxCONH2) [HB-19, pseudopeptide presenting pentavalently the pseudo-tripeptide Lysψ(CH2N)-Pro-Arg coupled to a template]", "values": [{"measurement": "recovery in bone marrow", "setting": "[1]; a few minutes following intravenous injection", "value": "a significant proportion of the peptide is recovered in the bone marrow"}, {"measurement": "tissue uptake", "setting": "[1]", "value": "there is a threshold for the tissue uptake of HB-19"}, {"measurement": "persistence in tissue", "setting": "[1]; rats, 24 hours", "value": "a significant proportion still persists even after 24 hours in its active form"}, {"measurement": "blood clearance", "setting": "[1]; rats, systemic administration", "value": "rapidly cleared from blood"}, {"measurement": "tissue distribution", "setting": "[1]; rats, systemic administration", "value": "distributed selectively in tissues expressing enhanced levels of surface nucleolin"}, {"measurement": "form of excreted radioactivity in urine", "setting": "[1]; rats", "value": "most of the excreted radioactivity in the urine is in the form of HB-19 metabolites"}, {"measurement": "route of elimination", "setting": "[1]; rats", "value": "eliminated gradually by renal glomerular filtration"}, {"measurement": "inhibition of HUVEC migration", "setting": "HUVECs", "value": "inhibited dramatically both of these events down to levels comparable to that of unstimulated cells"}, {"measurement": "localization at 20°C", "setting": "[2]", "value": "remains aggregated at the plasma membrane"}, {"measurement": "capillary-like structure formation, VEGF induced", "setting": "[3]; 0.5 nM VEGF165, treatment 3 days", "value": "inhibited formation of capillary-like branched structures"}, {"measurement": "tubular network formation, FGF-2 induced", "setting": "[3]; 3 nM FGF-2, treatment 3 days", "value": "inhibits tubular network structure formation in collagen"}, {"measurement": "capillary-like structure formation, PTN induced", "setting": "[3]; 3 nM PTN, treatment 3 days", "value": "inhibited formation of capillary-like branched structures"}, {"measurement": "inhibition of tumor growth", "setting": "[4]", "value": 57, "unit": "%"}]}
